Holding throughout (assay): NCI-60 cell line screen, 48 h
Test [1] has as its system SK-MEL-28 melanoma.
The subject of test [2] is NCI/ADR-RES ovarian.
Test [3] deals with OVCAR-5 ovarian.
For test [4], the system named is SK-MEL-5 melanoma.
The subject of test [5] is OVCAR-4 ovarian.
Test [6] concerns SF-295 CNS.
Test [7] has as its system UO-31 renal.
In test [8] the test system is HOP-62 NSCLC.
The subject of test [9] is MCF7 breast.
The subject of test [10] is K-562 leukemia.

Consider eight compounds from PubChem BioAssay (NCI).

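A five-concentration, 48-hour dose response in 96-well plates underlies each endpoint, interpolated linearly between surrounding concentrations. GI50 is the concentration that inhibits growth by half. TGI denotes the concentration required for complete inhibition of growth.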

For `Oc1ccccc1/C=N/Nc1ccc2ccccc2n1`, the GI50 in [1] is 11.8 µM; in test [2] it was 1.95 µM; in [3] it was 8.31 µM; in test [4] it was 4.12 µM; in [5], 2.42 µM; in test [6], 4.44 µM. The GI50 was 1.17 µM in test [7], 7.09 µM in test [8], 4.92 µM in [9] and 3.18 µM in [10]. The TGI in test [1] is > 100 µM; in [2], > 100 µM; in [3], > 100 µM; in test [4], > 100 µM; in test [5], 18.6 µM; in test [6], > 100 µM. Moreover, the TGI in test [7] was 35.6 µM; in [8], 44.7 µM; in [9] it was 91.5 µM; in [10], > 100 µM.

On to `NC(N)=N/N=C(/c1ccccc1)c1ccc(F)cc1`, for which the GI50 in [1] was 0.528 µM; in test [2], 0.766 µM; in [3], 1.03 µM; in test [4], 0.316 µM; in [5], 1.01 µM; in test [6], 0.243 µM. In addition, the GI50 in [7] is 0.991 µM; in test [8], 0.85 µM; in [9], 0.296 µM; in [10], 0.38 µM. In addition, the TGI in [1] was found to be 23 µM; in [2], 4.19 µM; in test [3], 18.7 µM; in test [4], 4.66 µM; in test [5], 37.7 µM; in [6], 2.25 µM. Moreover, the TGI in test [7] came to 14.6 µM; in [8], 13.1 µM; in test [9] it was 12.1 µM; in [10], 27.7 µM.

Consider `COc1cc(-n2cc(-c3ccc(Cl)c(Cl)c3)nc2SCc2ccccc2)cc(OC)c1OC`, for which the GI50 in test [1], in [2], in test [3], in test [4], in test [5] and in [6] was > 100 µM each time. The GI50 in [7], in test [8], in [9] and in test [10] was > 100 µM throughout. For the same compound, the TGI in test [1], in test [2], in test [3], in test [4], in test [5] and in [6] was > 100 µM throughout. Also, the TGI in [7], in [8], in test [9] and in test [10] was > 100 µM throughout.

As to `N#CC(=C1SCS1)[N+](=O)[O-]`, the GI50 in test [1] was 3.59 µM; in test [2], 3.05 µM; in test [3] it was 4.12 µM; in test [4], 3.25 µM; in test [5] it was 4.79 µM; in [6] it was 4.82 µM. Further, the GI50 was 6.04 µM in [7], 4.9 µM in [8], 1.31 µM in test [9] and 0.371 µM in [10]. Further, the TGI in test [1] stood at 15.1 µM; in [2] it was 20 µM; in [3], 19.9 µM; in [4], 13.8 µM; in test [5], 19 µM; in [6], 44.4 µM. Also, the TGI in test [7] was 24.3 µM; in [8], 21.1 µM; in test [9] it was 17.8 µM; in test [10] it was > 100 µM.

Turning to `COc1cccc(/C=C/C(=O)c2cc3c(N)c(C(=O)Nc4ccccc4C)sc3nc2C)c1`, the GI50 in test [2] was 1.51 µM; in test [3], 1.21 µM; in test [4], 1.44 µM; in [5], 2.38 µM; in [6], 2.26 µM; in test [7], 0.863 µM. Also, the figures for the GI50 in [8], in test [9] and in [10] were 1.12 µM, 1.29 µM and 1.42 µM, respectively. Besides, the TGI in [2] was > 50 µM; in test [3], 3.76 µM; in [4], 4.56 µM; in test [5], 11.2 µM; in [6] it was 15.9 µM; in test [7], 1.72 µM. The TGI in test [8] was 2.57 µM; in test [9], 6.1 µM; in test [10], > 50 µM.

Regarding `O=C1/C(=C/c2ccc(F)cc2)CCOc2ccc([N+](=O)[O-])cc21`, the GI50 in test [2] was 2.12 µM; in test [3], 2 µM; in test [4], 1.84 µM; in [5], 16.7 µM; in test [6], 3.08 µM; in test [7], 2.06 µM. The GI50 in [8] was 2.89 µM; in test [9], 2.91 µM; in [10], 0.964 µM. The TGI in test [2] came out at 4.99 µM; in test [3] it was 4.62 µM; in test [4], 3.6 µM; in test [5], 36.5 µM; in test [6] it was 9.23 µM; in test [7], 5.03 µM. Moreover, the TGI in [8] is 8.33 µM; in [9] it was 9.29 µM; in [10] it was > 100 µM.

`O=C(/C=C/c1ccc(Cl)cc1)c1ccc(Cl)cc1Cl`: the GI50 in test [2] was 0.331 µM; in test [3], 9.15 µM; in test [4] it was 4.89 µM; in test [5], 6.14 µM; in test [6], 10.6 µM; in test [7], 7.62 µM. The GI50 in test [8] was 10.9 µM; in [9], 6.28 µM; in test [10] it was 1.68 µM. Also, the TGI in [2] was found to be 15.5 µM; in test [3], 18 µM; in test [4], 13.1 µM; in test [5] it was 14 µM; in test [6], 21.4 µM; in test [7], 14.4 µM. Besides, the figures for the TGI in test [8], in test [9] and in test [10] were 25.1 µM, 23 µM and 14.2 µM, respectively.

For `COc1cc2c3c(cccc3c1)C(=O)N(CCN1CCCC1)C2=O`, the GI50 in [1] is 1.84 µM; in test [2], 2.25 µM; in test [3], 4.12 µM; in test [4] it was 1.56 µM; in test [6], 2.46 µM; in test [8], 2.1 µM. Besides, the figures for the GI50 in [9] and in test [10] were 1.71 µM and 3.62 µM, respectively. In addition, the TGI in test [1] was 3.43 µM; in [2], 8.04 µM; in test [3], > 100 µM; in [4], 3.06 µM; in [6], 6.44 µM; in [8] it was 5.27 µM. In addition, the TGI in [9] was 20.4 µM; in test [10], > 100 µM.
